Experimental data reported in patent publication US20180371076A1, “MATERNAL TH17 CELLS AND PSYCHIATRIC DISORDERS” (New York University, priority 2017, published 2018).

Key:
[1] = tested on: offspring of pregnant mice (MIA mouse model); assay: Marble burying test in adult offspring; type: in vivo
From the text: Maternal Immune Activation. Mice were mated overnight and females were checked daily for the presence of seminal plugs, noted as embryonic day 0.5 (E0.5). […] Each dam was returned to its cage and left undisturbed until the birth of its litter. All pups remained with the mother until weaning on postnatal day 21 (P21), at which time mice were group housed at maximum 5 per cage with same-sex littermates. […]
(§1) Marble burying test. […] At the end of a 15-min exploration period, mice were gently removed from the testing cages and the number of marbles buried was recorded. A marble burying index was scored as 1 for marbles covered >50% by bedding, 0.5 for ˜50% covered, or 0 for anything less. […]
as §1, with “test One week following the social approach task, male mice were acclimated for 0.5-1 h in separate clean holding cages.” for “test.”

IL-17a = IL-17a ELISA of maternal sera and placenta/decidua extract; type: in vivo, mouse; details: for maternal serum IL-17a: serum at E14.5-E15.5, vs PBS
Method: Cell preparation, Flow cytometry, ELISA. Embryos at each implantation site were dissected in ice-cold HBSS containing Ca^2+ and Mg^2+. Myometrium was first peeled off of the decidua and embryos were discarded. Dissected decidual and placental tissues were then minced and enzymatically dissociated in HBSS containing 0.28 Wunsch units (WU)/mL Liberase (Roche) and 30 μg/ml DNase I (Roche) for 30 min at 37° C. with intermittent mixing. Digested tissues were washed in PBS containing 5 mM EDTA and 5% fetal bovine serum and then incubated again in the same buffer for 15 min at 37° C. prior to filtration through a cell strainer. After separation on a discontinuous 40% & 80% Percoll gradient, the mononuclear cell fraction was treated with ACK lysis buffer (Lonza). Mononuclear cells (1×10^6 cells/mL) were stimulated with phorbol 12-myristate 13-acetate (PMA, 50 ng/mL; Sigma), ionomycin (500 ng/mL; Sigma) in T cell media: RPMI 1640 (Invitrogen) supplemented with 10% (v/v) heat-inactivated FBS (Hyclone), 50 U penicillin-streptomycin (Invitrogen), 2 mM glutamine, and 50 μM β-mercaptoethanol. Cell culture supernatant was used for ELISA analyses. For flow cytometry, cells were incubated for 5 h with PMA, ionomycin and GolgiStop (BD). Intracellular cytokine staining was performed according to the manufacturer's protocol (Cytofix/Cytoperm buffer set from BD with alexa647-conjugated anti-IL-17a (eBioscience) and PE-conjugated anti-IFN-γ). LSR II (BD Biosciences) and FlowJo software (Tree Star) were used for flow cytometry and analysis. Dead cells were excluded using the Live/Dead fixable aqua dead cell stain kit (Invitrogen). Placenta/decidua extract were prepared by homogenizing samples in Tissue Extraction Reagent I (Invitrogen, FN0071) in the presence of protease inhibitor cocktail (Roche, 11873580001) on ice using pestles. The homogenates were centrifuged at 4° C. at 13,000 rpm for 20 min, and the supernatants were aliquotted and frozen at −80° C. For ELISA with sera and placenta/decidua extract, IL-6 (Ebioscience), IL-17a (Biolgened), and IL-10 (BD) were measured according to the manufacturer's protocol.
Cell preparation, Flow cytometry, ELISA Embryos at each implantation site were dissected in ice-cold HBSS containing Ca2+ and Mg2+ (Gibco). Myometrium was first peeled off of the decidua and embryos were discarded. Dissected decidual and placental tissues were then minced and enzymatically dissociated in HBSS containing 0.28 Wunsch units (WU)/mL Liberase (Roche) and 30 μg/mL DNase I (Roche) for 30 min at 37° C. with intermittent mixing. Digested tissues were washed in PBS containing 5 mM EDTA and 5% fetal bovine serum and then incubated again in the same buffer for 15 min at 37° C. prior to filtration through a cell strainer. After separation on a discontinuous 40% & 80% Percoll gradient, the mononuclear cell fraction was treated with ACK lysis buffer (Lonza). Mononuclear cells (1×10^6 cells/mL) were cultured for 24 h with or without phorbol 12-myristate 13-acetate (PMA, 50 ng/mL; Sigma) and ionomycin (500 ng/mL; Sigma) in T cell media: RPMI 1640 (Invitrogen) supplemented with 10% (v/v) heat-inactivated FBS (Hyclone), 50 U penicillin-streptomycin (Invitrogen), 2 mM glutamine, and 50 μM β-mercaptoethanol. Cell culture supernatant was used for ELISA analyses. Unstimulated cells were used to prepare total RNA for qPCR analyses. For flow cytometry, cells were incubated for 5 h with PMA, ionomycin and GolgiStop (BD). […]

poly(I:C)
marble burying in adult offspring ([1]; poly(I:C)-injected vs PBS-injected mothers): enhanced marble burying | IL-17a in placenta/decidua extracts (IL-17a; PBS- or poly(I:C)-treated mothers): could not be detected | time until serum IL-17a is detected after injection (IL-17a; poly(I:C) at E12.5): 2 to 3 days | maternal serum IL-17a (IL-17a; poly(I:C) at E12.5): strong increase | maternal serum IL-17a (IL-17a; poly(I:C) at E12.5, listed as Poly(I:C)): further increase | serum IL-17a at later embryonic stages (IL-17a; poly(I:C) injected mothers): continue to rise until E19.5 | serum IL-17a at E14.5 (IL-17a; poly(I:C) into pregnant dams lacking IL-6 (IL-6 KO)): failed to increase

B1: recombinant IL-17a protein: Recombinant mouse IL-17a cytokine (R&D), injected into the fetal brain ventricle (protein, UniProt Q62386 26-158, looked up)
Interleukin-17A: AAIIPQSSACPNTEAKDFLQNVKVNLKVFNSLGAKVSSRRPSDYLNRSTSPWTLHRNEDPDRYPSVIWEAQCRHQRCVNAEGKLDHHMNSVLIQQEILVLKREPESCPFTFRVEKMLVGVGCTCVASIVRQAA
marble burying behavior ([1]; intra-ventricular injection at E14.5, compared with sham injection): increased marble burying behavior

B2: recombinant IL-6: carrier-free recombinant mouse IL-6 (R&D) (protein, UniProt P08505 25-211, looked up)
Interleukin-6: FPTSQVRRGDFTEDTTPNRPVYTTSQVGGLITHVLWEIVEMRKELCNGNSDCMNNDDALAENNLKLPEIQRNDGCYQTGYNQEICLLKISSGLLEYHSYLEYMKNNLKDNKKDKARVLQRDTETLIHIFNQEVKDLHKIVLPTPISNALLTDKLESQKEWLRTKTIQFILKSLEEFLKVTLRSTRQT
maternal serum IL-17a at E14.5 (IL-17a; injection into wild-type (WT) mothers): sufficient to induce IL-17a levels comparable to those of poly(I:C)-injected WT mothers
